Laboratory results published in patent US20110008465A1, “SESQUITERPENE FORMULATIONS, KITS AND METHODS OF USE THEREOF” (priority 2007, published 2011).
Where a name gives a salt, the structure may show the parent alone.

Tests used:
[1] = test system: PC-3 (prostate cancer); assay: Chou and Talalay combination assay with beta-caryophyllene; format: cell-based, human; conditions: anticancer drug in combination with beta-caryophyllene; Chou and Talalay CI; 48 h
Experimental: (§1) Each solution was prepared fresh and use within 1 hour after preparation.
(§2) Cells were then harvested using trypsine-EDTA. Cells were counted using a hemocytometer and resuspended in DMEM+10% FBS medium.
(§3) Proliferation assay: Increasing concentrations of the anticancer agents and/or beta-caryophyllene were added to 96-well plate (100 μL per well). The final concentration of solvent in the culture medium was maintained below 0.5% (volume/volume) to avoid solvent toxicity.
(§4) The cells were incubated for 48 h at 37° C. and 5% CO2. Cytotoxicity was assessed using the resazurin reduction test (O'Brien et al., 2000). Fluorescence was measured on an automated 96-well Fluoroskan Ascent FI™ plate reader (Labsystems) using excitation and emission wavelengths of 530 nm and 590 nm, respectively. Resazurin was then removed.
(§5) Microplates were frozen at −20° C. overnight. Plates were thawed, a volume of 100 μl of 0.01% SDS in water was added to the wells, the plates were shaken at room temperature for 3 hours and then frozen once more at −20° C. overnight. […] Plates were shaken in the dark (at room temperature) for at least 2 hours, and fluorescence was measured on an automated 96-well Fluoroskan Ascent FI™ plate reader (Labsystems) using excitation and emission wavelengths of 360 nm and 460 nm, respectively.

[2] = test system: MCF-7 (breast cancer); assay: as above; format: cell-based, human; conditions: anticancer drug in combination with beta-caryophyllene; Chou and Talalay CI; 48 h
Experimental: as §1, §2, §3, §4, §5
(§6) Results were analyzed using the Chou and Talalay method (9) and may be interpreted as follow: Cl>1 represents an antagonist effect of beta-caryophyllene with the corresponding anticancer agent; Cl=1 represents an additive effect of beta-caryophyllene with the corresponding anticancer agent; Cl<1 represents a potentiating effect of beta-caryophyllene with the corresponding anticancer agent.

[3] = test system: DLD-1 (colon cancer); assay: as above; format: cell-based, human; conditions: anticancer drug in combination with beta-caryophyllene; Chou and Talalay CI; 48 h
Experimental: as §1, §2, §3, §4, §5, §6

[4] = test system: PA-1 (ovary cancer); assay: as above; format: cell-based, human; conditions: anticancer drug in combination with beta-caryophyllene; Chou and Talalay CI; 48 h
Experimental: as §1, §2, §3, §4, §5, §6

[5] = test system: A-549 (lung cancer); assay: as above; format: cell-based, human; conditions: anticancer drug in combination with beta-caryophyllene; Chou and Talalay CI; 48 h
Experimental: as §1, §2, §3, §4, §5, §6

[6] = test system: MDA-MB-231 (breast cancer); assay: as above; format: cell-based, human; conditions: anticancer drug in combination with beta-caryophyllene; Chou and Talalay CI; 48 h
Experimental: as §1, §2, §3, §4, §5, §6

[7] = test system: MEL-2 (human melanoma); assay: as above; format: cell-based; conditions: anticancer drug in combination with beta-caryophyllene; Chou and Talalay CI; 48 h
Experimental: as §1, §2, §3, §4, §5, §6

[8] = test system: GL-261 (murine glioblastoma); assay: as above; format: cell-based; conditions: anticancer drug in combination with beta-caryophyllene; Chou and Talalay CI; 48 h
Experimental: as §1, §2, §3, §4, §5, §6

[9] = test system: B16 (murine melanoma); assay: as above; format: cell-based; conditions: anticancer drug in combination with beta-caryophyllene; Chou and Talalay CI; 48 h
Experimental: as §1, §2, §3, §4, §5, §6

[10] = test system: U-251 (human glioblastoma); assay: as above; format: cell-based; conditions: anticancer drug in combination with beta-caryophyllene; Chou and Talalay CI; 48 h
Experimental: as §1, §2, §3, §4, §5, §6

[11] = test system: tumor cell lines; assay: Comparative potentiating effect of beta-caryophyllene and Tesmilifene (DPPE) combined with 5 antitumor classes; format: cell-based
Experimental: as §1, §2, §3, §4, §5, §6

## vincristine sulfate salt
[1]
  Potentiating activity PC-3: (1) (Very High: potentiating or additive activity to IC20 and CI < 0.6 to IC50)
[2]
  Potentiating activity MCF-7: (1) (Very High: CI equal or below 1 at IC20 and Cl below 0.6 to IC50)
[3]
  Potentiating activity DLD-1: (1) (Very High: CI equal or below 1 at IC20 and Cl below 0.6 to IC50)
[4]
  Potentiating activity PA-1: (1) (Very High: potentiating or additive activity to IC20 and CI < 0.6 to IC50)
[5]
  Potentiating activity A-549: (2) (High: CI below 0.5 at IC50)
[6]
  Potentiating activity MDA: (3) (Moderate: 0.5 < CI < 0.8 at IC50)
[7]
  Potentiating activity MEL-2: (1) (Very High: potentiating or additive activity to IC20 and CI < 0.6 to IC50)
[8]
  Potentiating activity GL-261: (1) (Very High: potentiating or additive activity to IC20 and CI < 0.6 to IC50)
[9]
  Potentiating activity B16: (1) (Very High: potentiating or additive activity to IC20 and CI < 0.6 to IC50)
[10]
  Potentiating activity U-251: (1) (Very High: potentiating or additive activity to IC20 and CI < 0.6 to IC50)

## COc1cccc2c1C(=O)c1c(O)c3c(c(O)c1C2=O)C[C@@](O)(C(=O)CO)C[C@@H]3O[C@H]1C[C@H](N)[C@H](O)[C@H](C)O1 [Doxorubicin, doxorubicin hydrochloride]
[1]
  Potentiating activity PC-3: (4) (Weak: 0.8 < CI < 1 to IC50)
[2]
  Potentiating activity MCF-7: (1) (Very High: CI equal or below 1 at IC20 and Cl below 0.6 to IC50)
[3]
  Potentiating activity DLD-1: (4) (Weak: 0.8 < CI < 1 at IC50)
[4]
  Potentiating activity PA-1: (1) (Very High: potentiating or additive activity to IC20 and CI < 0.6 to IC50)
[5]
  Potentiating activity A-549: (2) (High: CI below 0.5 at IC50)
[6]
  Potentiating activity MDA: (3) (Moderate: 0.5 < CI < 0.8 at IC50)
[7]
  Potentiating activity MEL-2: (1) (Very High: potentiating or additive activity to IC20 and CI < 0.6 to IC50)
[8]
  Potentiating activity GL-261: (3) (Moderate: 0.5 < CI < 0.8 to IC50)
[9]
  Potentiating activity B16: (1) (Very High: potentiating or additive activity to IC20 and CI < 0.6 to IC50)
[10]
  Potentiating activity U-251: (1) (Very High: potentiating or additive activity to IC20 and CI < 0.6 to IC50)

## O=NN(CCCl)C(=O)NCCCl [Carmustine, carmustine]
[1]
  Potentiating activity PC-3: (1) (Very High: potentiating or additive activity to IC20 and CI < 0.6 to IC50)
[2]
  Potentiating activity MCF-7: (1) (Very High: CI equal or below 1 at IC20 and Cl below 0.6 to IC50)
[3]
  Potentiating activity DLD-1: (2) (High: CI below 0.5 at IC50)
[4]
  Potentiating activity PA-1: (1) (Very High: potentiating or additive activity to IC20 and CI < 0.6 to IC50)
[5]
  Potentiating activity A-549: (1) (Very High: CI equal or below 1 at IC20 and Cl below 0.6 to IC50)
[6]
  Potentiating activity MDA: (3) (Moderate: 0.5 < CI < 0.8 at IC50)
[7]
  Potentiating activity MEL-2: (1) (Very High: potentiating or additive activity to IC20 and CI < 0.6 to IC50)
[8]
  Potentiating activity GL-261: (1) (Very High: potentiating or additive activity to IC20 and CI < 0.6 to IC50)
[9]
  Potentiating activity B16: (1) (Very High: potentiating or additive activity to IC20 and CI < 0.6 to IC50)
[10]
  Potentiating activity U-251: (1) (Very High: potentiating or additive activity to IC20 and CI < 0.6 to IC50)

## O=C(O)CCCc1ccc(N(CCCl)CCCl)cc1 [Chlorambucil, chlorambucil]
[2]
  Potentiating activity MCF-7: (1) (Very High: CI equal or below 1 at IC20 and Cl below 0.6 to IC50)
[3]
  Potentiating activity DLD-1: (3) (Moderate: 0.5 < CI < 0.8 at IC50)
[4]
  Potentiating activity PA-1: (3) (Moderate: 0.5 < CI < 0.8 to IC50)
[5]
  Potentiating activity A-549: (3) (Moderate: 0.5 < CI < 0.8 at IC50)
[6]
  Potentiating activity MDA: (1) (Very High: CI equal or below 1 at IC20 and Cl below 0.6 to IC50)
[7]
  Potentiating activity MEL-2: (1) (Very High: potentiating or additive activity to IC20 and CI < 0.6 to IC50)
[8]
  Potentiating activity GL-261: (6) (Antagonist effect: CI > 1)
[9]
  Potentiating activity B16: (1) (Very High: potentiating or additive activity to IC20 and CI < 0.6 to IC50)
[10]
  Potentiating activity U-251: (2) (High: CI < 0.5 to IC50)

## N.N.O=C([O-])C1(C(=O)[O-])CCC1.[Pt+2] [Carboplatin, carboplatin]
[1]
  Potentiating activity PC-3: (6) (Antagonist effect: CI > 1)
[2]
  Potentiating activity MCF-7: (1) (Very High: CI equal or below 1 at IC20 and Cl below 0.6 to IC50)
[3]
  Potentiating activity DLD-1: (3) (Moderate: 0.5 < CI < 0.8 at IC50)
[4]
  Potentiating activity PA-1: (3) (Moderate: 0.5 < CI < 0.8 to IC50)
[5]
  Potentiating activity A-549: (1) (Very High: CI equal or below 1 at IC20 and Cl below 0.6 to IC50)
[6]
  Potentiating activity MDA: (3) (Moderate: 0.5 < CI < 0.8 at IC50)
[7]
  Potentiating activity MEL-2: (3) (Moderate: 0.5 < CI < 0.8 to IC50)
[8]
  Potentiating activity GL-261: (2) (High: CI < 0.5 to IC50)
[9]
  Potentiating activity B16: (1) (Very High: potentiating or additive activity to IC20 and CI < 0.6 to IC50)
[10]
  Potentiating activity U-251: (3) (Moderate: 0.5 < CI < 0.8 to IC50)

## CCN(CC)CCOc1ccc(Cc2ccccc2)cc1 [DPPE, Tesmilifene]
[11]; class (1) Very High
  Alkylating agents %: 25%
  Alkylating agents Total (60): 15
  Antimitotic agents %: 25%
  Antimitotic agents Total (40): 10
  RNA/DNA antimetabolites %: 30%
  RNA/DNA antimetabolites Total (20): 6
  Topoisomerase II inhibitors %: 18%
  Topoisomerase II inhibitors Total (40): 7
  kinase inhibitors %: 30%
  kinase inhibitors Total (20): 6
[11]; class (2) High
  Alkylating agents %: 20%
  Alkylating agents Total (60): 12
  Antimitotic agents %: 20%
  Antimitotic agents Total (40): 8
  RNA/DNA antimetabolites %: 15%
  RNA/DNA antimetabolites Total (20): 3
  Topoisomerase II inhibitors %: 13%
  Topoisomerase II inhibitors Total (40): 5
  kinase inhibitors %: 25%
  kinase inhibitors Total (20): 5
[11]; class (3) Moderate
  Alkylating agents %: 23%
  Alkylating agents Total (60): 14
  Antimitotic agents %: 30%
  Antimitotic agents Total (40): 12
  RNA/DNA antimetabolites %: 15%
  RNA/DNA antimetabolites Total (20): 3
  Topoisomerase II inhibitors %: 30%
  Topoisomerase II inhibitors Total (40): 12
  kinase inhibitors %: 45%
  kinase inhibitors Total (20): 9
[11]; class (4) Weak
  Alkylating agents %: 10%
  Alkylating agents Total (60): 6
  Antimitotic agents %: 15%
  Antimitotic agents Total (40): 6
  RNA/DNA antimetabolites %: 10%
  RNA/DNA antimetabolites Total (20): 2
  Topoisomerase II inhibitors %: 10%
  Topoisomerase II inhibitors Total (40): 4
  kinase inhibitors %: 0%
  kinase inhibitors Total (20): 0
[11]; class (5) Additive effect
  Alkylating agents %: 5%
  Alkylating agents Total (60): 3
  Antimitotic agents %: 0%
  Antimitotic agents Total (40): 0
  RNA/DNA antimetabolites %: 0%
  RNA/DNA antimetabolites Total (20): 0
  Topoisomerase II inhibitors %: 5%
  Topoisomerase II inhibitors Total (40): 2
  kinase inhibitors %: 0%
  kinase inhibitors Total (20): 0
[11]; class (6) Antagonist effect
  Alkylating agents %: 17%
  Alkylating agents Total (60): 10
  Antimitotic agents %: 10%
  Antimitotic agents Total (40): 4
  RNA/DNA antimetabolites %: 30%
  RNA/DNA antimetabolites Total (20): 6
  Topoisomerase II inhibitors %: 25%
  Topoisomerase II inhibitors Total (40): 10
  kinase inhibitors %: 0%
  kinase inhibitors Total (20): 0
[11]; drugs tested at their IC50 values
  drugs exhibiting a potentiating effect when combined: 81%
